Values of other authors, collected in patent US9662344B2, “Carnitine retention” (The University of Nottingham, priority 2003, dated 2017).
Read-outs that look alike come from different tables or passages of the source.

Legend:
[1] = tested on: skeletal muscle carnitine uptake; conditions: isolated cells (Georges et al., 2000)
[2] = not given; remark: listed apart in the source
[3] = oral doses of L-carnitine between 2 and 6 g

Question: Which “plasma carnitine concentration of maximum renal reabsorption” value (above this the excess is excreted in urine) does the source give for `C[N+](C)(C)C[C@H](O)CC(=O)[O-]` [L-carnitine] here?
Answer: The value was 60 to 100 µmol/L.

Question: What about the bioavailability [3] of the same molecule?
Answer: Its bioavailability is “less than 20%”.

Question: And the “time of peak plasma concentrations after ingestion” value [3]?
Answer: Its value is about 3 h.

Question: What about the Km [1] of the same molecule?
Answer: The Km was 6.4 µM.

Question: And the “resting skeletal muscle carnitine content” value ([2]; 6 g every day for up to 2 weeks (Vukovich et al 1994))?
Answer: The value was “no significant increase”.

Question: And the VO2 max ([2]; competitive walkers, oral 4 g every day for 2 weeks (Marconi et al 1985))?
Answer: The VO2 max was “slight but significant increase”.

Question: And the “effect on VO2 max, RQ, maximal exercise, fatty acid utilisation, glucose utilisation, lactate, perceived exertion, or heart rate” value ([2]; oral 3-5 g L-carnitine over 5-28 days)?
Answer: The value was “no effect”.

Question: And the VO2 max ([2]; single dose 2 g orally an hour before exercise (Vecchiet et al 1990))?
Answer: The VO2 max was “increase”.
